For this data set the following is noted: Liquid, Ebulliometric method (Recirculating still).

The values below come from the NIST ThermoML archive (doi:10.1021/acs.jced.6b00388).

± gives the expanded uncertainty stated by the source.

In the case of `CC=C(C)C#N` [2-methyl-2-butenenitrile], the “vapor or sublimation pressure” value reads like this: (367.43 K) 50 ± 1 kPa; (392.75 K) 100 ± 2 kPa.
In the case of `CC=CCC#N` [3-pentenenitrile], the “vapor or sublimation pressure” value (393.48 K) is reported as 50 ± 1 kPa and the “vapor or sublimation pressure” value (418.25 K) amounted to 100 ± 2 kPa.
As to `C=CC1CC=CCC1` (stereo unspecified) [4-ethenylcyclohexene], the “vapor or sublimation pressure” value is, setting by setting: (377.75 K) 50 ± 1 kPa; (401.42 K) 100 ± 2 kPa.
